# Test results: US12102642B2, “Treatment of hypercoagulopathy in Cushing's syndrome by administration of glucocorticoid receptor modulators” (Corcept Therapeutics Incorporated, priority 2018, dated 2024)
# “Also recorded” adds a separate entry of the source.
# Tests used:
# [1] = system: Cushing's syndrome patients; assay: Clinical study of relacorilant in Cushing's syndrome patients (coagulation factors, inflammation markers, comorbidities); format: in vivo, human
# Text: In TABLE 1 above, the P-value is a Wilcoxon Signed Rank P-value; mean change from baseline indicates the mean change from the initial (baseline) values to the last-observed values; Factor VIII values are reported as percent of normal values; platelet counts and eosinophil counts are reported as numbers of cells per liter; APTT indicates activated partial thromboplastin time, measured in seconds; and serum osteocalcin measures levels of the vitamin K-related hormone osteocalcin outside of bone. […] Relacorilant was administered to the patients once per day for four months. Two groups of Cushing's syndrome patients received relacorilant. Group 1 received 100 milligrams per day (mg/day) which, if tolerated, was raised to 200 mg/day for the 16 weeks of the study. Group 2 received relacorilant doses according to the following schedule: the starting doses were 250 milligrams (mg) per day of relacorilant for four weeks, followed by 300 mg/day relacorilant for the next four weeks, followed by 350 mg/day relacorilant for a further four weeks, and then 400 mg relacorilant for another four weeks. […] Factor VIII and von Willebrand Factor at baseline, prior to relacorilant administration (left-most pair of columns); after four weeks of relacorilant treatment (middle pair of columns); and after 3 or 4 months of relacorilant treatment (right-most pair of columns). Factor VIII levels are reduced, as compared to baseline, at week four and after 3 or 4 months of relacorilant treatment. […] The APTT of Group 2 patients receiving relacorilant was measured at baseline (before relacorilant administration) and after 16 weeks (or following the last relacorilant administration for those patients who […] the full 16 weeks of relacorilant administration). […] Increased APTT indicates an increase in the time for blood coagulation; that is, a reduction in hypercoagulation.
# [2] = system: Cushing's syndrome patients; conditions: see U.S. Patent Application 62/783,015; cited from earlier work
# [3] = baseline to last-observed values, cells per liter
# [4] = generally observed within two weeks of achieving a therapeutic dose
smiles,measurement,setting,value
"Cn1cc(S(=O)(=O)N2CCC3=Cc4c(cnn4-c4ccc(F)cc4)C[C@]3(C(=O)c3cc(C(F)(F)F)ccn3)C2)cn1 [relacorilant, (R)-(1-(4-fluorophenyl)-6-((1-methyl-1H-pyrazol-4-yl)sulfonyl)-4,4a,5,6,7,8-hexahydro-1H-pyrazolo[3,4-g]isoquinolin-4a-yl)(4-(trifluoromethyl)pyridin-2-yl)methanone]","Coagulation profile (coagulation factors, thrombin-antithrombin) compared to baseline",[1]; FIG. 2B,improved compared to baseline
same,APTT compared to baseline,"[1]; Group 2 patients (250 to 400 mg/day), 12 patients, after 16 weeks or last administration (FIG. 2A), p-value 0.014",increased significantly
same,Von Willebrand factor levels compared to baseline,[1]; after 3 or 4 months of relacorilant treatment (FIG. 1A),return to baseline levels
same,C-Reactive protein levels compared to baseline,[1]; after 3 or 4 months of relacorilant treatment (FIG. 3),return to baseline levels
same,Factor VIII levels compared to baseline,"[1]; after 3 or 4 months of relacorilant treatment, end of study (FIG. 1A)",reduced; also recorded: normalized
same,Abnormally elevated coagulation factors caused by excess cortisol activity,[1]; as early as after one month of treatment,Improvement/normalization
same,Von Willebrand factor levels compared to baseline,[1]; at four weeks of relacorilant treatment (FIG. 1A),initially rise somewhat
same,C-Reactive protein levels compared to baseline,[1]; at four weeks of relacorilant treatment (FIG. 3),initially rise somewhat
same,"Serum Osteocalcin, Mean Change from Baseline",[1]; baseline to last-observed values,3.00 µg/L
same,"Coagulopathy (APTT), Mean Change from Baseline","[1]; baseline to last-observed values, activated partial thromboplastin time",+1.45 Seconds
same,"Coagulopathy (Platelets), Mean Change from Baseline",[1]; [3],−68.82 10^9/L
same,"Inflammation (eosinophils), Mean Change from Baseline",[1]; [3],0.05 10^9/L
same,"Coagulopathy (Factor VIII), Mean Change from Baseline","[1]; baseline to last-observed values, percent of normal values, Cushing's syndrome patients, relacorilant once per day",−18.94%
same,Thromboembolic events,[1]; clinical study of 35 Cushing's syndrome patients treated with relacorilant,No thromboembolic events were observed
same,Hyperglycemia,[1]; [4],improvement
same,Hypertension,[1]; [4],improvement
same,Factor VIII levels compared to baseline,[1]; week four of relacorilant treatment (FIG. 1A),reduced
same,Effect on cortisol,[2],not raising cortisol
same,Risk of hypokalemia,[2],not increasing the risk of hypokalemia
